Patent publication US9351987B2, “Compositions for treating heartworm infestation” (CEVA SANTE ANIMALE, priority 2010, dated 2016)
Where two headings read alike, the source gives them in different places.

How the values were obtained:
[1] = 14-week oral study, cited from earlier work
[2] = estimated from reports from non recommended use of the drug; cited from earlier work
[3] = 36-day study, beagle dogs, cited from earlier work
[4] = Plasma ivermectin concentration after ivermectin implant in dogs; assay type: in vivo, dog
Description: The concentrations of ivermectin (ng/mL) in the plasma, collected in the jugular vein at day 0 to day 429, are presented in Table 2.
The concentrations of ivermectin in the plasma, collected in the jugular vein, have been evaluated during 429 days for dogs A and […] (Table 2, Example 1) or just dosed until D365 for dogs C and D.

Dirofilaria larvae [5] = settings: cited from earlier work
Dirofilaria larvae [6] = assay: Effective ivermectin rate against Dirofilaria larvae; assay type: in vivo; settings: established by the present inventors
Description: Currently approved dosages of ivermectin are about 6 mcg/kg orally or 200 mcg/kg subcutaneously. […] Cunningham C P et al., (Am. J. Vet, Res., 2006, 67) brought evidence that this effective rate might be around 0.2 ng/mL of ivermectin in the plasma.
Also, the formulations according to the present invention provide a long term protection, e.g., at least 6 months, 12 months, or 18 months up to 24 months against infections caused by parasites.

CC[C@H](C)[C@H]1O[C@]2(CC[C@@H]1C)C[C@@H]1C[C@@H](C/C=C(\C)[C@@H](O[C@H]3C[C@H](OC)[C@@H](O[C@H]4C[C@H](OC)[C@@H](O)[C@H](C)O4)[C@H](C)O3)[C@@H](C)/C=C/C=C3\CO[C@@H]4[C@H](O)C(C)=C[C@@H](C(=O)O1)[C@]34O)O2 [Ivermectin]
No Observable Effect Levels (NOEL) ([1]; beagle dogs (4/sex/group)): 0.5 mg/kg bw
Signs developed (four dogs, killed prior to the end of the study) ([1]; beagle dogs, 2.0 mg/kg bw group): tremors, ataxia, anorexia and dehydration
Signs observed ([1]; beagle dogs, 1.0 and 2.0 mg/kg bw): mydriasis and slight weight loss
Share of collie dogs highly sensitive to ivermectin [2]: Approximately 30%
Time to steady-state of H2B1a in plasma ([3]; oral 0.5 and 2.0 mg/kg bw): after about three weeks
Average increase in plasma levels on a four-fold increase in the dose ([3]; oral 0.5 vs 2.0 mg/kg bw): eight-fold
Ivermectin concentration in plasma ([4]; dog A (6% ivermectin implant), day 1): 6.25 ng/mL
Ivermectin concentration in plasma ([4]; dog A (6% ivermectin implant), day 2): 5.29 ng/mL
Ivermectin concentration in plasma ([4]; dog A (6% ivermectin implant), day 4): 5.25 ng/mL
Ivermectin concentration in plasma ([4]; dog A (6% ivermectin implant), day 10): 2.56 ng/mL
Ivermectin concentration in plasma ([4]; dog A (6% ivermectin implant), day 21): 1.35 ng/mL
Ivermectin concentration in plasma ([4]; dog A (6% ivermectin implant), day 30): 0.91 ng/mL
Ivermectin concentration in plasma ([4]; dog A (6% ivermectin implant), day 39): 1.09 ng/mL
Ivermectin concentration in plasma ([4]; dog A (6% ivermectin implant), day 60): 0.76 ng/mL
Ivermectin concentration in plasma ([4]; dog A (6% ivermectin implant), day 78): 0.67 ng/mL
Ivermectin concentration in plasma ([4]; dog A (6% ivermectin implant), day 99): 0.26 ng/mL
Ivermectin concentration in plasma ([4]; dog A (6% ivermectin implant), day 120): 0.44 ng/mL
Ivermectin concentration in plasma ([4]; dog A (6% ivermectin implant), day 141): 0.28 ng/mL
Ivermectin concentration in plasma ([4]; dog A (6% ivermectin implant), day 162): 0.18 ng/mL
Ivermectin concentration in plasma ([4]; dog A (6% ivermectin implant), day 183): 0.13 ng/mL
Ivermectin concentration in plasma ([4]; dog A (6% ivermectin implant), day 211): 0.14 ng/mL
Ivermectin concentration in plasma ([4]; dog A (6% ivermectin implant), day 239): 0.10 ng/mL
Ivermectin concentration in plasma ([4]; dog A (6% ivermectin implant), day 266): 0.12 ng/mL
Ivermectin concentration in plasma ([4]; dog A (6% ivermectin implant), day 295): 0.07 ng/mL
Ivermectin concentration in plasma ([4]; dog A (6% ivermectin implant), day 329): 0.06 ng/mL
Ivermectin concentration in plasma ([4]; dog A (6% ivermectin implant), day 365): 0.14 ng/mL
Ivermectin concentration in plasma ([4]; dog A (6% ivermectin implant), day 380): 0.14 ng/mL
Ivermectin concentration in plasma ([4]; dog A (6% ivermectin implant), day 395): 0.17 ng/mL
Ivermectin concentration in plasma ([4]; dog A (6% ivermectin implant), day 429): 0.20 ng/mL
Ivermectin concentration in plasma ([4]; dog B (6% ivermectin implant), day 1): 3.50 ng/mL
Ivermectin concentration in plasma ([4]; dog B (6% ivermectin implant), day 2): 3.04 ng/mL
Ivermectin concentration in plasma ([4]; dog B (6% ivermectin implant), day 4): 2.62 ng/mL
Ivermectin concentration in plasma ([4]; dog B (6% ivermectin implant), day 10): 0.97 ng/mL
Ivermectin concentration in plasma ([4]; dog B (6% ivermectin implant), day 21): 1.92 ng/mL
Ivermectin concentration in plasma ([4]; dog B (6% ivermectin implant), day 30): 1.01 ng/mL
Ivermectin concentration in plasma ([4]; dog B (6% ivermectin implant), day 39): 1.02 ng/mL
Ivermectin concentration in plasma ([4]; dog B (6% ivermectin implant), day 60): 0.51 ng/mL
Ivermectin concentration in plasma ([4]; dog B (6% ivermectin implant), day 78): 0.29 ng/mL
Ivermectin concentration in plasma ([4]; dog B (6% ivermectin implant), day 99): 0.11 ng/mL
Ivermectin concentration in plasma ([4]; dog B (6% ivermectin implant), day 120): 0.30 ng/mL
Ivermectin concentration in plasma ([4]; dog B (6% ivermectin implant), day 141): 0.23 ng/mL
Ivermectin concentration in plasma ([4]; dog B (6% ivermectin implant), day 162): 0.10 ng/mL
Ivermectin concentration in plasma ([4]; dog B (6% ivermectin implant), day 183): 0.11 ng/mL
Ivermectin concentration in plasma ([4]; dog B (6% ivermectin implant), day 211): 0.24 ng/mL
Ivermectin concentration in plasma ([4]; dog B (6% ivermectin implant), day 239): 0.05 ng/mL
Ivermectin concentration in plasma ([4]; dog B (6% ivermectin implant), day 266): 0.10 ng/mL
Ivermectin concentration in plasma ([4]; dog B (6% ivermectin implant), day 295): 0.06 ng/mL
Ivermectin concentration in plasma ([4]; dog B (6% ivermectin implant), day 365): 0.06 ng/mL
Ivermectin concentration in plasma ([4]; dog B (6% ivermectin implant), day 380): 0.06 ng/mL
Ivermectin concentration in plasma ([4]; dog B (6% ivermectin implant), day 395): 0.08 ng/mL
Ivermectin concentration in plasma ([4]; dog B (6% ivermectin implant), day 429): 0.06 ng/mL
Ivermectin concentration in plasma ([4]; dog C (4.5% ivermectin implant), day 1): 6.93 ng/mL
Ivermectin concentration in plasma ([4]; dog C (4.5% ivermectin implant), day 2): 6.42 ng/mL
Ivermectin concentration in plasma ([4]; dog C (4.5% ivermectin implant), day 4): 4.77 ng/mL
Ivermectin concentration in plasma ([4]; dog C (4.5% ivermectin implant), day 10): 2.64 ng/mL
Ivermectin concentration in plasma ([4]; dog C (4.5% ivermectin implant), day 21): 2.14 ng/mL
Ivermectin concentration in plasma ([4]; dog C (4.5% ivermectin implant), day 30): 1.79 ng/mL
Ivermectin concentration in plasma ([4]; dog C (4.5% ivermectin implant), day 39): 1.74 ng/mL
Ivermectin concentration in plasma ([4]; dog C (4.5% ivermectin implant), day 60): 0.28 ng/mL
Ivermectin concentration in plasma ([4]; dog C (4.5% ivermectin implant), day 78): 0.17 ng/mL
Ivermectin concentration in plasma ([4]; dog C (4.5% ivermectin implant), day 99): 0.21 ng/mL
Ivermectin concentration in plasma ([4]; dog C (4.5% ivermectin implant), day 120): 0.27 ng/mL
Ivermectin concentration in plasma ([4]; dog C (4.5% ivermectin implant), day 141): 0.26 ng/mL
Ivermectin concentration in plasma ([4]; dog C (4.5% ivermectin implant), day 162): 0.17 ng/mL
Ivermectin concentration in plasma ([4]; dog C (4.5% ivermectin implant), day 183): 0.17 ng/mL
Ivermectin concentration in plasma ([4]; dog C (4.5% ivermectin implant), day 211): 0.15 ng/mL
Ivermectin concentration in plasma ([4]; dog C (4.5% ivermectin implant), day 239): 0.11 ng/mL
Ivermectin concentration in plasma ([4]; dog C (4.5% ivermectin implant), day 266): 0.13 ng/mL
Ivermectin concentration in plasma ([4]; dog C (4.5% ivermectin implant), day 295): 0.13 ng/mL
Ivermectin concentration in plasma ([4]; dog C (4.5% ivermectin implant), day 329): 0.06 ng/mL
Ivermectin concentration in plasma ([4]; dog C (4.5% ivermectin implant), day 365): 0.16 ng/mL
Ivermectin concentration in plasma ([4]; dog D (3% ivermectin implant), day 1): 7.63 ng/mL
Ivermectin concentration in plasma ([4]; dog D (3% ivermectin implant), day 2): 6.95 ng/mL
Ivermectin concentration in plasma ([4]; dog D (3% ivermectin implant), day 4): 4.35 ng/mL
Ivermectin concentration in plasma ([4]; dog D (3% ivermectin implant), day 10): 3.82 ng/mL
Ivermectin concentration in plasma ([4]; dog D (3% ivermectin implant), day 21): 1.23 ng/mL
Ivermectin concentration in plasma ([4]; dog D (3% ivermectin implant), day 30): 1.54 ng/mL
Ivermectin concentration in plasma ([4]; dog D (3% ivermectin implant), day 39): 1.15 ng/mL
Ivermectin concentration in plasma ([4]; dog D (3% ivermectin implant), day 60): 0.84 ng/mL
Ivermectin concentration in plasma ([4]; dog D (3% ivermectin implant), day 78): 0.52 ng/mL
Ivermectin concentration in plasma ([4]; dog D (3% ivermectin implant), day 99): 0.69 ng/mL
Ivermectin concentration in plasma ([4]; dog D (3% ivermectin implant), day 120): 0.87 ng/mL
Ivermectin concentration in plasma ([4]; dog D (3% ivermectin implant), day 141): 0.65 ng/mL
Ivermectin concentration in plasma ([4]; dog D (3% ivermectin implant), day 162): 0.45 ng/mL
Ivermectin concentration in plasma ([4]; dog D (3% ivermectin implant), day 183): 0.51 ng/mL
Ivermectin concentration in plasma ([4]; dog D (3% ivermectin implant), day 211): 0.29 ng/mL
Ivermectin concentration in plasma ([4]; dog D (3% ivermectin implant), day 239): 0.18 ng/mL
Ivermectin concentration in plasma ([4]; dog D (3% ivermectin implant), day 266): 0.22 ng/mL
Ivermectin concentration in plasma ([4]; dog D (3% ivermectin implant), day 295): 0.13 ng/mL
Ivermectin concentration in plasma ([4]; dog D (3% ivermectin implant), day 329): 0.13 ng/mL
Ivermectin concentration in plasma ([4]; dog D (3% ivermectin implant), day 365): 0.09 ng/mL
Effective rate of ivermectin in the plasma (Dirofilaria larvae [5]; Cunningham C P et al., Am. J. Vet. Res., 2006, 67): around 0.2 ng/mL
Effect on Dirofilaria larvae (Dirofilaria larvae [5]; ivermectin administered per se at 6 mcg/kg, generally reported): able to kill efficiency one month aged Dirofilaria larvae
Effective rate of ivermectin in the plasma (Dirofilaria larvae [6]): around 0.1 ng/mL
